Reference: ChEMBL document CHEMBL1201862, “PubChem BioAssay data set” (2004)
Calls of active or inactive are those of the source.

Experiments:
cells = format: functional
Protein RecA = target: T1, Protein RecA (Mycobacterium tuberculosis, UniProt P9WHJ3); assay: Fluorescence Cell-Free Homogeneous Dose Retest to Identify Inhibitors of RecA-Intein Splicing Activity. [Related pubchem assays (depositor defined):AID2097, AID2223, AID489010, AID492950]; format: functional
T1 sequence (P9WHJ3 whole entry): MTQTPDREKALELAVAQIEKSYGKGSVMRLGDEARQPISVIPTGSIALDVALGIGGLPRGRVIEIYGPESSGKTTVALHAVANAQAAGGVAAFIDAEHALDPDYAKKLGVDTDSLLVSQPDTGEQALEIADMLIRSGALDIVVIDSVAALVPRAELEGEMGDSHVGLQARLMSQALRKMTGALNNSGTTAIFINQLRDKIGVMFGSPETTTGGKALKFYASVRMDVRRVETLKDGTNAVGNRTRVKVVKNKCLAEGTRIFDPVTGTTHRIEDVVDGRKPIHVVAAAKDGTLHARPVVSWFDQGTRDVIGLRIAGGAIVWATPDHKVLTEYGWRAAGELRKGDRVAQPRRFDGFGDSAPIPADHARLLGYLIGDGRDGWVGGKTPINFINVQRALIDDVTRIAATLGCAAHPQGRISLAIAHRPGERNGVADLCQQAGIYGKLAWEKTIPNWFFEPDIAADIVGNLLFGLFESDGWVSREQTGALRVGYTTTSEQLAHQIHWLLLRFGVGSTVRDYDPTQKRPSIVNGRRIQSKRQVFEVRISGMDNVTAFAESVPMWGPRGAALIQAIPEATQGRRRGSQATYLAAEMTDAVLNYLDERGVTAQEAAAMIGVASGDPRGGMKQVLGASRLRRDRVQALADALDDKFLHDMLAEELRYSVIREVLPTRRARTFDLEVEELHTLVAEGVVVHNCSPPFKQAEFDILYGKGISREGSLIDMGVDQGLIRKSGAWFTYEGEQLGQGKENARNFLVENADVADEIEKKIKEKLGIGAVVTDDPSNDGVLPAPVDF

[1] = target: T2, Replicative DNA helicase DnaB (Mycobacterium tuberculosis, UniProt P9WMR3); assay: DnaB intein splicing inhibitors, dose response, biochemical, cell-free fluorescence (AID 449749); format: functional
T2 sequence (P9WMR3 whole entry): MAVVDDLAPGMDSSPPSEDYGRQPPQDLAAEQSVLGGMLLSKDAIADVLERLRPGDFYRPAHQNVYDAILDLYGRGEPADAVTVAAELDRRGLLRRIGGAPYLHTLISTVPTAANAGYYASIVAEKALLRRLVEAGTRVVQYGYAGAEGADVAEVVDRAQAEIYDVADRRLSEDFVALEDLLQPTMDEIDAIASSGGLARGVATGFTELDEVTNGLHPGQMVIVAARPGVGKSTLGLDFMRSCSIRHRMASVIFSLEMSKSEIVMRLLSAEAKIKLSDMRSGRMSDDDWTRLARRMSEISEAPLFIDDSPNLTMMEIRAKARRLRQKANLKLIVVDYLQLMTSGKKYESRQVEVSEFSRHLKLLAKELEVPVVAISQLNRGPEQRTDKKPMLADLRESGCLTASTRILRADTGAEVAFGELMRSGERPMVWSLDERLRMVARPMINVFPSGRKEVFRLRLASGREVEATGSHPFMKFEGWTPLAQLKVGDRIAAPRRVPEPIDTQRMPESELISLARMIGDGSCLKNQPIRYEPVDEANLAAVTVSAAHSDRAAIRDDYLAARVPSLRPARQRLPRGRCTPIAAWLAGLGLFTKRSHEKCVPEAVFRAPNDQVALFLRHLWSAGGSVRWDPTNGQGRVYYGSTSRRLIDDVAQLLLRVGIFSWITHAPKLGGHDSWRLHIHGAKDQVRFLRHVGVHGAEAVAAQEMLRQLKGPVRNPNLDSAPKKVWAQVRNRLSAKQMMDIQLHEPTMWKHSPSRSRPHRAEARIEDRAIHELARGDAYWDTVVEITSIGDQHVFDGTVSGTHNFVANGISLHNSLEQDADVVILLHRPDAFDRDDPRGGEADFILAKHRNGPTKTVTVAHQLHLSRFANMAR

H9c2 = assay: cells; format: functional, cell-based; conditions: Rattus norvegicus, H9c2, Myocardium;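 also: confirmatory concentration-response retest of ultra-high-throughput screening hits for modulation of myocardial damage; cell death induced by hydrogen peroxide oxidative stress; compound pretreatment for 60 min then peroxide exposure for 2 h; potency is for protecting the cells against peroxide damage rather than for killing them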
[2] = target: T3, Rac GTPase-activating protein 1 (Homo sapiens, UniProt Q9H0H5); assay: blockers of MgcRacGAP-driven Rac1 GTP hydrolysis – biochemical, ADP Hunter fluorescence, primary and confirmatory, confirmation (AID 624330); format: functional
T3 sequence (Q9H0H5 whole entry): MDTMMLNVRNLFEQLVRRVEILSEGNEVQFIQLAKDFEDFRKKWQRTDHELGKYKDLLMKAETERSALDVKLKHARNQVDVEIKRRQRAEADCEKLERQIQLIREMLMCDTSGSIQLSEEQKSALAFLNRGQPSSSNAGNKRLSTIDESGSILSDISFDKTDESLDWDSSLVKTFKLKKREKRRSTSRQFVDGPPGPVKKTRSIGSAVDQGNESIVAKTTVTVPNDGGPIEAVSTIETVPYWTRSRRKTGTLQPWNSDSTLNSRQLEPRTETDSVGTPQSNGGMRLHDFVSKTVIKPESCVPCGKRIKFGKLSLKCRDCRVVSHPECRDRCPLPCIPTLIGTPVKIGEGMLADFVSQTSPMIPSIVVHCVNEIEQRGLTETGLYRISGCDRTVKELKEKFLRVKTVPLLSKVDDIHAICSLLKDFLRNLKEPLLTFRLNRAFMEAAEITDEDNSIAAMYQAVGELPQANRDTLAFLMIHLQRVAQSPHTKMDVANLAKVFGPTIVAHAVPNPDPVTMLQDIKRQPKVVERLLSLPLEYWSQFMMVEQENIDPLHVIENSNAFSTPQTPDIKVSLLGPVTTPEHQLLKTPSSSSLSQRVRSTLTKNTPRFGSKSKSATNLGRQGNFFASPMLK

Vero = assay: cells; format: functional; conditions: Chlorocebus sabaeus
[3] = target: T4, Heat shock factor protein 1 (Mus musculus, UniProt P38532); assay: enhancement of HSF1-driven luciferase signal – cell-based, NIH3T3, luminescence, dose retest, confirmation (AID 435004); format: functional;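 also: stress induced by proteasome inhibitor MG132 added 30 min after compound; luciferase reporter driven by HSF1 response element in NIH3T3 cells; actives raise luminescence as potentiators of the MG132 stress response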
T4 sequence (P38532 whole entry): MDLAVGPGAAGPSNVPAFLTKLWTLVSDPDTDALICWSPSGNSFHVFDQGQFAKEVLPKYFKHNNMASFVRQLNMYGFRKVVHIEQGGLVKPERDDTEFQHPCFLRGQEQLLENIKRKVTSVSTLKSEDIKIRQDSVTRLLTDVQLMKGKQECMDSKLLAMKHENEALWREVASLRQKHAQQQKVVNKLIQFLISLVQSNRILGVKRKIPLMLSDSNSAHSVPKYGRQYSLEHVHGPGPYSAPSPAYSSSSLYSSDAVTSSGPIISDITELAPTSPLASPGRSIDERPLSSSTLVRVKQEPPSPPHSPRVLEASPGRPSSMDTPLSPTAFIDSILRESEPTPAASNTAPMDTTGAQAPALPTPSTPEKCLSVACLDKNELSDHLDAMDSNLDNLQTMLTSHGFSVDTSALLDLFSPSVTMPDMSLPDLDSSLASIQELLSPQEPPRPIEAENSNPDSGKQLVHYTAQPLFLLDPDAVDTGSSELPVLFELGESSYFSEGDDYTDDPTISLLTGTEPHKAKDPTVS

[4] = tested on: Streptococcus sp. 'group A'; assay: Streptococcus pyogenes SK(-)GAS viability under kanamycin – luminescence, BacTiterGlo, confirmation, counter-screen for streptokinase expression inhibitor project, dose response (AID 1900); format: functional, organism-based
Streptococcus = assay: GAS UMAA2166 growth inhibition – luminescence, BacTiterGlo, counter-screen for streptokinase expression inhibitor project, dose response (AID 1915); format: functional, organism-based;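 also: potency for reduction of bacterial viability or growth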
[5] = viability of uninfected HEp-2 cells – cell-based, HTS, cytotoxicity control for RSV inhibitor project, dose response (AID 2410); format: functional; conditions: human respiratory syncytial virus

CC(=O)Oc1c(-c2ccco2)oc2ccccc2c1=O
IC50 (cells): 23.2 µM (active)

Cc1n[nH]c2c1C(c1cnn(C)c1)C(C#N)=C(N)O2 (stereo not given)
EC50 (Protein RecA): 3.67 µM (active)
AC50 [1]: 14.2 µM (active)

O=C(Oc1ccc2c(-c3ccccc3)cc(=O)oc2c1)C1CCCCC1
IC50 (H9c2): 34.3 µM (inactive)

O=P1(c2ccccc2)Nc2ccccc2N1c1ccccc1 (stereo not given)
IC50 [2]: 28.8 µM (active)

COc1cccc(Nc2c([N+](=O)[O-])cncc2[N+](=O)[O-])c1
EC50 (Protein RecA): 8.86 µM (active)
AC50 [1]: 12.9 µM (active)

COc1ccc(NC(=O)N(C)C[C@H]2Oc3c(NC(=O)Nc4ccc(C(F)(F)F)cc4)cccc3C(=O)N([C@H](C)CO)C[C@@H]2C)cc1
IC50 (H9c2): > 79 µM (inactive)

CCOc1cc2c(cc1O)C(=NOC)CC1C2CCC2(C)C(O)CCC12 (stereo not given)
CC50 (Vero): 5.94 µM (active)

CCC1(C)Cc2c(sc3nc(NN)n(C)c(=O)c23)CO1 (stereo not given)
IC50 (H9c2): > 79 µM (inactive)

CN(C)/N=C/c1ccc(N2CCOCC2)cc1
IC50 [2]: 51.2 µM (active)

CCCC(=O)Nc1nc2ccc(NC(=O)c3ccc(Br)o3)cc2s1
IC50 (H9c2): > 79 µM (inactive)

CCN(CC)S(=O)(=O)c1ccc(C)c(NC(=O)CN2CCN(C)CC2)c1
IC50 [2]: 118 µM (active)

Cc1ccccc1C1c2[nH]c3ccccc3c2C[C@H]2C(=O)N(c3ccccc3C(=O)NCCCN3CCOCC3)C(=O)N12 (stereo not given in full)
IC50 (H9c2): 15.3 µM (active)

COC(=O)c1ccc(N)c(NC=C2C(=O)CC(C)(C)CC2=O)c1
IC50 (H9c2): 6.51 µM (active)

CC1(C)CC2(C)OC(=N)C1(C#N)C2(C#N)C#N (stereo not given)
EC50 (Protein RecA): 12.3 µM (active)
AC50 [1]: 70.3 µM (active)

O=C(CSc1ncnc2c1nnn2Cc1ccc(F)cc1)NCC1CCCO1 (stereo not given)
EC50 (Protein RecA): 10.2 µM (active)
AC50 [1]: 14.3 µM (active)

CC(=O)Nc1ccc(NC(=O)C(C)OC(=O)COc2ccc(Nc3ccccc3)cc2)cc1 (stereo not given)
IC50 [2]: 111 µM (active)

CCCc1cc(C(=O)Nc2ccccc2SC)no1
IC50 (cells): 10.5 µM (active)

COC(=O)C1=C(C)N(CCc2ccc(OC)cc2)C(=O)C1
IC50 (H9c2): > 79 µM (inactive)

COCCN(Cc1nc(O)c2ccccc2n1)C(=O)COc1ccccc1-c1ccccc1
CC50 (Vero): > 25 µM (active)

O=C(/C=C/NNC(=O)c1ccccc1)c1ccc(Br)cc1
IC50 (H9c2): 12.4 µM (active)
EC50 [3]: 39.1 µM (active)

COc1cccc(COC(=O)c2sc3nc4n(c(=O)c3c2C)CCC4)c1OC
IC50 (cells): 4.36 µM (active)
EC50 [4]: 1.6 µM (active)
EC50 (Streptococcus): 8.48 µM (active)

O=C(c1ccco1)N1CCN(Cc2cccc([N+](=O)[O-])c2)CC1
IC50 [2]: 127 µM (active)

Cc1noc(C)c1CSCC(=O)Oc1ccc(N(C)S(=O)(=O)c2ccccc2)cc1
EC50 (Protein RecA): 22.3 µM (active)
AC50 [1]: 4.1 µM (active)

CCCn1c(SC(C(=O)Nc2cccc(OC)c2)c2ccccc2)nc2ccccc2c1=O (stereo not given)
IC50 (H9c2): > 79 µM (inactive)

O=C(N/N=C\c1ccc(-c2ccccc2[N+](=O)[O-])o1)C1COc2ccccc2O1 (stereo not given)
EC50 (Protein RecA): 12.4 µM (active)
AC50 [1]: 7.94 µM (active)

COc1ccc(OC(=O)COc2cc(C)ccc2C)cc1
IC50 [2]: 37.7 µM (active)

O=C(COC(=O)Cc1nnc(O)c2ccccc12)Nc1ncc(Cl)cc1Cl
IC50 (H9c2): 15.4 µM (active)

Cc1ccc(NC(=O)CSc2ncnc3ccccc23)cc1S(=O)(=O)N1CCCCCC1
EC50 (Protein RecA): 2.66 µM (active)
AC50 [1]: 20.1 µM (active)

O=C1CCCC2=C1C(c1ccc(Cl)cc1)n1c(s/c(=C\c3ccc4ccncc4c3)c1=O)=N2 (stereo not given)
CC50 [5]: 31.8 µM (active)
CC50 (Vero): > 25 µM (active)
EC50 [3]: 146 µM (active)

CCOC(=O)C1CCN(Cc2ccc(-c3ccccc3)cc2)CC1
IC50 [2]: 151 µM (active)

O=C1/C(=C/c2ccccc2F)SC(=S)N1CCC(=O)N1CCCCC1CCO (stereo not given)
CC50 (Vero): 25 µM (active)

COc1cccc(N2CC(C(=O)Nc3nnc(SCC(=O)c4ccccc4)s3)CC2=O)c1 (stereo not given)
EC50 (Protein RecA): > 380 µM (inactive)
AC50 [1]: 181 µM (active)

CCOC(=O)C1CCN(c2cc3c(cc2NC(=O)c2ccc(OC)c(OC)c2)n(C)c(=O)n3C)CC1
IC50 (H9c2): 26.8 µM (active)

O=C(NCc1nnc(O)c2ccccc12)C1CC(=O)N(c2ccccc2)C1 (stereo not given)
IC50 (H9c2): > 79 µM (inactive)

CCN1CCN(CCOc2ccc(Br)cc2C)CC1
IC50 [2]: 73.2 µM (active)

CCS(=O)(=O)C1=NN2C(=N)/C(=C\c3ccc(OC(=O)c4ccco4)cc3)C(=O)N=C2S1
EC50 (Protein RecA): 19.4 µM (active)
AC50 [1]: > 380 µM (inactive)
